Assay results as given in patent US12558371B2, “Chondroitin sulfate polysaccharide, and semi-synthetic preparation method therefor and use thereof” (Institute of Materia Medica, Chinese Academy of Medical …, priority 2019, dated 2026).
Marks after values point to notes of the source that are not given here.

Experiments:
[1] = test system: mouse ear acute swelling inflammation models caused by croton oil; assay: Mouse ear acute swelling inflammation model caused by croton oil; format: in vivo, Balb/c mice; settings: 5 mg/kg, once a day for 3 d
Experimental: Anti-inflammatory effects of the glycans 1 to 5 prepared in Examples 1 to 5 were evaluated, specifically as follows:
(1) Test method: experiments for evaluating pharmacodynamic activities of CS compounds in mouse ear acute swelling inflammation models caused by croton oil
Animals: Balb/c mice, male (20 g to 22 g); 8 mice per group.
Groups: model group, positive drug (indometacin) group (5 mg/kg), natural extract (CS-E) group (200 mg/kg), and glycan groups (200 mg/kg, 100 mg/kg, and 50 mg/kg). Each of the positive drug and the compounds of CS series was formulated with sodium carboxymethylcellulose at a concentration of 0.5% by mass, and stored in a refrigerator at 4° C.
Administration and test: the mice were administered for 3 d, once a day. After the last administration, an induction rate on mouse ear swelling (%) and an inhibition rate on the ear swelling degree (%) by the compounds were calculated.
Statistical analysis: the experimental results were all expressed as “mean±standard deviation”. A statistical difference between two groups was calculated and analyzed by the t-test method. * represents p<0.05, and ** represents p<0.01.

[2] = test system: DSS-induced UC model mice; assay: DSS-induced acute ulcerative colitis (UC) mouse model; format: in vivo, C57BL/6J mice
Experimental: Pharmacodynamics of the Glycan 3 (referred to as SEMI5) prepared in Example 3 was evaluated on anti-DSS models, specifically as follows:
C57BL/6J mice, male (18 g to 20 g), 6 mice per group, which were purchased from Beijing Huafukang Biotechnology Co., Ltd., with a license No.: SCXK (Beijing) 2014-0004.
(1) Normal control group (control group): intragastrically administered with sodium carboxymethylcellulose at a concentration of 0.5% by mass.
(2) UC (Ulcerative colitis) model group (model group): intragastrically administered with sodium carboxymethylcellulose at a concentration of 0.5% by mass.
(3) SASP (a positive drug salazosulfapyridine) group: Shanghai Xinyi Pharmaceutical Co., Ltd. (Batch No.: 036151102), 500 mg/kg, which was formulated with sodium carboxymethylcellulose at a concentration of 0.5% by mass and stored at 4° C., and intragastrically administered once a day.
(4) SEMI5-50 group: 50 mg/kg, which was formulated with distilled water and stored at 4° C., and intragastrically administered once a day.
(5) SEMI5-150 group: 150 mg/kg, which was formulated with distilled water and stored at 4° C., and intragastrically administered once a day.
3. Experimental method After being adaptively raised for one week in an SPF animal house (experimental animal use license No.: SYXK (Beijing) 2014-0023), the C57BL/6J mice were randomly divided into 5 groups according to the above protocols. Mice in the UC model group and administration groups were modeled with DSS (MP, CA9011-18-1, US) every day according to the modeling method for ulcerative colitis that had been established in the laboratory. The normal control group (control group) and UC model group (model group) were intragastrically administered with sodium carboxymethylcellulose at a concentration of 0.5% by mass once a day. The SASP group, SEMI5-50 group, and SEMI5-150 group were intragastrically administered once a day according to the experimental protocols in the section of “Experimental groups”. 7 d after modeling, typical UC pathological changes such as obvious listlessness, activity reduction, weight loss, watery stool, and hematochezia occurred in animals of the UC model group. The experiments were terminated, and animals in each group were sacrificed. Each of evaluation indexes related with colitis was detected (as shown in the subsequent section of experimental results). The anti-UC pharmacodynamic activity of each of the compounds was evaluated comprehensively.
The animals were evaluated by the DAI scores in terms of indexes such as animal body weight loss, stool property, hematochezia. The lower the DAI score was, the closer was the condition of the animal to a normal physiological status.

[3] = 500 mg/kg intragastrically once a day, 7 d

SMILES	Inhibition rate (%) ([1]; Table 2)	Swelling rate (%) Mean ± SD ([1]; Table 2)	Inhibition rate (%) ([1]; Table 3)	Swelling rate (%) Mean ± SD ([1]; Table 3)	Inhibition rate (%) ([1]; Table 4)	Swelling rate (%) Mean ± SD ([1]; Table 4)	Effect on body weight reduction vs. UC model group (in words) ([2]; 500 mg/kg)	Effect on colon contracture vs. UC model group (in words) ([2]; 500 mg/kg)	Effect on disease complex index DAI scores vs. UC model group (in words) ([2]; 500 mg/kg)	Overall anti-UC activity (conclusion in words) ([2]; 500 mg/kg)	Colon contracture percentage (%) [2, 3]	Colon length (cm) [2, 3]	DAI complex index inhibition rate (%) [2, 3]	Disease activity index DAI [2, 3]	Body weight (g) X ± SD, End ([2]; 500 mg/kg intragastrically once a day, end, 7 d after modeling)	Body weight (g) X ± SD, Start ([2]; 500 mg/kg intragastrically once a day, start of experiment)
COc1ccc2c(c1)c(CC(=O)O)c(C)n2C(=O)c1ccc(Cl)cc1 [Indometacin, indometacin]	26.01%	70.25 ± 20.97* %	27.70%	74.43 ± 20.97* %	41.06%	45.34 ± 6.92* %										
O=C(O)c1cc(/N=N/c2ccc(S(=O)(=O)Nc3ccccn3)cc2)ccc1O [SASP, salazosulfapyridine]							failed to effectively alleviate the body weight reduction	failed to effectively alleviate the colon contracture	improved to some extent	exhibited a certain anti-UC activity	31.39%	5.29 ± 0.61 cm	14.68* %	3.10 ± 0.59	18.76 ± 1.09 g	21.97 ± 0.71 g
